Assay results taken from patent US12187742B2 (XRAD Therapeutics, Inc., priority 2018, dated 2025).

Columns and labels:
ATM = ATM (Homo sapiens (Human), UniProt Q13315); assay: ATM in Cell Western Assay (pKAP1 in etoposide-treated MCF-7 cells); assay type: cell-based; details: pKAP1 in etoposide-treated MCF-7 cells
Summary of the method: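 Cells received compounds in a 10-dose, 3-fold series from a 1 μM final top concentration, then 100 μM etoposide, for 1 hr at 37° C. They were then fixed with paraformaldehyde and permeabilized with 0.1% Triton X-100. After immunostaining, plates were scanned on an infrared imager.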

DNA-PK = DNA-PK (Homo sapiens (Human), UniProt P78527); assay: DNA-PK Enzyme-Linked Immunosorbent Assay (phosphorylation of GST-p53 (1-101) peptide); assay type: biochemical; details: ELISA, 20 μM ATP
Summary of the method: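 ELISA with plate-bound GST-p53 (1-101) phosphorylated by DNA-PK (0.1 μg/mL final) with 20 μM ATP for 1 h at 25 °C. Compounds tested over 10 3-fold doses from 100 nM top final. Phospho-p53 Ser15 detected by antibody, HRP and TMB, absorbance at 450 nm.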

Chain of ATM (Q13315 whole entry): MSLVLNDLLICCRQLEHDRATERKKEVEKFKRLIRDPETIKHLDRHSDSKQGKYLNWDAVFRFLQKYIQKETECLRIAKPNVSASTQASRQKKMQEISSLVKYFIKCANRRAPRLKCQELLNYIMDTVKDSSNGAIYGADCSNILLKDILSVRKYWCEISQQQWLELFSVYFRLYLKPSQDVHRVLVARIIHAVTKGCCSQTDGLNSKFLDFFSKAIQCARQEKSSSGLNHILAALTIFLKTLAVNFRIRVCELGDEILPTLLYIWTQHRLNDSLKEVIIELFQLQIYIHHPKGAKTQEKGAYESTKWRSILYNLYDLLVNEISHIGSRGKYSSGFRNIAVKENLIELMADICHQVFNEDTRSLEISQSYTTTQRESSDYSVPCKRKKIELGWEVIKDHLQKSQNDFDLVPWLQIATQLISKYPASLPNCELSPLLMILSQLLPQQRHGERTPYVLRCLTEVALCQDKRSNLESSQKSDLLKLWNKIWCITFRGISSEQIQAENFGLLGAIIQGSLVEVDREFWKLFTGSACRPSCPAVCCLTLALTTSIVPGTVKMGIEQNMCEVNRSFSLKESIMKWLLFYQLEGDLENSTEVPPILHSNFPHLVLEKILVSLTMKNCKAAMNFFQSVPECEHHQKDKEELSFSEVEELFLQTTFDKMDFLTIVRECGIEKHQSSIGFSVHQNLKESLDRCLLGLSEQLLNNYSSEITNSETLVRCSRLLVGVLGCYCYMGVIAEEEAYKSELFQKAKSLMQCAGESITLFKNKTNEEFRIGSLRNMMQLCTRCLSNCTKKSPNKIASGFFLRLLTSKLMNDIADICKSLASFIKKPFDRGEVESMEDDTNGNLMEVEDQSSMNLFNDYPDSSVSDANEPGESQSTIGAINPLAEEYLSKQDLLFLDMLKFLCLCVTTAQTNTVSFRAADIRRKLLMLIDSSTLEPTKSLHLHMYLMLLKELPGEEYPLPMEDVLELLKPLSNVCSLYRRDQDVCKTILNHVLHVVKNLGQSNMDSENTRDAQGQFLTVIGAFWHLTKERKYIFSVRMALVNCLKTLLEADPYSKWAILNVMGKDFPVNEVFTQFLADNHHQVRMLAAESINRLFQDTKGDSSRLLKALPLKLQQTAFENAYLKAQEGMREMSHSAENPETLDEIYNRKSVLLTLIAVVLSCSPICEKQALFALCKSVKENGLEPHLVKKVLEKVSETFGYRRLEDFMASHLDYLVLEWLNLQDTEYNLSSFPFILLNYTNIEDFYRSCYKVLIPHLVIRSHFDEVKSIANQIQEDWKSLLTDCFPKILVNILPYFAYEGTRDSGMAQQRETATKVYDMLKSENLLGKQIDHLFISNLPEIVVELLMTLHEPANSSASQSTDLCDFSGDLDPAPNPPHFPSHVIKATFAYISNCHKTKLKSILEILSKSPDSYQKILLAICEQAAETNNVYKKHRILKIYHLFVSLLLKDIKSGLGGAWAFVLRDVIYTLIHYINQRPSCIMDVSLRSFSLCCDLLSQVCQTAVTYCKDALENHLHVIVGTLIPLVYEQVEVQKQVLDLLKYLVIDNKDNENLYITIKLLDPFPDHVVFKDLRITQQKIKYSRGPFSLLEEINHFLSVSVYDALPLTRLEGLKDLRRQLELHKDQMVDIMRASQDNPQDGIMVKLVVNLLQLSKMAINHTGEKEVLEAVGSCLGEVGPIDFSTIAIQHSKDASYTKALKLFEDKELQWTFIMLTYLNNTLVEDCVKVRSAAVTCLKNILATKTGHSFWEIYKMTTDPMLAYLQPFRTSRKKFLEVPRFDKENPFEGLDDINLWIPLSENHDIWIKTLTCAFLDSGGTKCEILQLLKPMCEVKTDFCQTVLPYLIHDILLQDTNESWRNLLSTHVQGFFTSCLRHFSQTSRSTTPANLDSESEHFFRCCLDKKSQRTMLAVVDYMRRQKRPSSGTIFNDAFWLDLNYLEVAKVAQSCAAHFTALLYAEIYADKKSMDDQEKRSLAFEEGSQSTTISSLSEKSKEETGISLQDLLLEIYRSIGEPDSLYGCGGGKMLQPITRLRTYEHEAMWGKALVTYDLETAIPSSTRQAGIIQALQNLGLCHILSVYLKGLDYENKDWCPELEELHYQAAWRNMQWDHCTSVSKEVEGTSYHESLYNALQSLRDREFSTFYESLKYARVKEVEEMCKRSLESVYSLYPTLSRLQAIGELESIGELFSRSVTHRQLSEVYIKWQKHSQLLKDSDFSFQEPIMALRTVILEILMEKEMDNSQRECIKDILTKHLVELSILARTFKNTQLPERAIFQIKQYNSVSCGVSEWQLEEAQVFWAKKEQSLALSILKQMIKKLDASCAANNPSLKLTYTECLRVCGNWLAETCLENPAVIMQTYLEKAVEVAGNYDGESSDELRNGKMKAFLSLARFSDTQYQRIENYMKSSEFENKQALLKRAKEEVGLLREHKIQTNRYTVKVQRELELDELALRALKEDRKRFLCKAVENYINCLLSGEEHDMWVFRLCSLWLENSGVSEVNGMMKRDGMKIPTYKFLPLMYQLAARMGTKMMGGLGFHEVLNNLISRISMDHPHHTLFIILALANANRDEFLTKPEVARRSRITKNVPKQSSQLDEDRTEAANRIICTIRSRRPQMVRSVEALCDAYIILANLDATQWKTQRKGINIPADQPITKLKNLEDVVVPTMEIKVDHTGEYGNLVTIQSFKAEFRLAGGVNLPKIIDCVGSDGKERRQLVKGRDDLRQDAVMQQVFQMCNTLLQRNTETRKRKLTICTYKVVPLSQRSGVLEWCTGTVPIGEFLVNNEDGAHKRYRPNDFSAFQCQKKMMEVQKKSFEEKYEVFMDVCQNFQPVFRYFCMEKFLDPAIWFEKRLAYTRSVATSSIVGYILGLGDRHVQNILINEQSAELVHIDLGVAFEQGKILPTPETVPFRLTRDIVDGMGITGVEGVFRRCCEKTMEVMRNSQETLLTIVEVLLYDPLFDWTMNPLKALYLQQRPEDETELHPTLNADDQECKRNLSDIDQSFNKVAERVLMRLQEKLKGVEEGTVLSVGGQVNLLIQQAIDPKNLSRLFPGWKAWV

IC50 (ATM): 1 to 100 nM
IC50 (DNA-PK): 1 to 100 nM
Structure (SMILES): CN(C)CCCOc1ncc(-c2ccc3ncc4c(c3c2)C2(CC(F)(F)C2)C(=O)N4C)cc1NS(C)(=O)=O [Example 554, N-(5-(3,3-Difluoro-3′-methyl-2′-oxo-2′,3′-dihydrospiro[cyclobutane-1,1′-pyrrolo[2,3-c]quinolin]-8′-yl)-2-(3-(dimethylamino)propoxy)pyridin-3-yl)methanesulfonamide]
